Measured values taken from ChEMBL document CHEMBL2390851, “Synthesis and preliminary in vitro biological evaluation of 7α-testosterone-chlorambucil hybrid designed for the treatment of prostate cancer” (Eur J Med Chem, 2013).
Active and inactive are the calls of the source. The calls are words filed in the database; no cut-off is given here.

Legend:
Format in all cases: functional, cell-based
PC-3 [1] = test: Cytotoxicity against androgen receptor deficient human PC3 cells at 160 uM after 72 hrs by MTT assay
LNCaP = test: Cytotoxicity against human LNCAP cells expressing androgen receptor after 72 hrs by MTT assay
PC-3 [2] = test: Cytotoxicity against androgen receptor deficient human PC3 cells after 72 hrs by MTT assay; conditions: PC-3, 72 h

Structure (SMILES) | Activity (PC-3 [1]) | IC50 (LNCaP) [µM] | IC50 (PC-3 [2]) [µM]
C[C@]12CC[C@H]3[C@@H]([C@H](C/C=C/COC(=O)CCCc4ccc(N(CCCl)CCCl)cc4)CC4=CC(=O)CC[C@@]43C)[C@@H]1CC[C@@H]2O (mixture of isomers) | inactive | 101 | 
O=C(O)CCCc1ccc(N(CCCl)CCCl)cc1 [CHLORAMBUCIL] |  | 124 | 131
